The target in series [1] is T1, Tyrosine-protein phosphatase non-receptor type 1 (Homo sapiens, UniProt P18031).
T1 sequence (P18031 whole entry): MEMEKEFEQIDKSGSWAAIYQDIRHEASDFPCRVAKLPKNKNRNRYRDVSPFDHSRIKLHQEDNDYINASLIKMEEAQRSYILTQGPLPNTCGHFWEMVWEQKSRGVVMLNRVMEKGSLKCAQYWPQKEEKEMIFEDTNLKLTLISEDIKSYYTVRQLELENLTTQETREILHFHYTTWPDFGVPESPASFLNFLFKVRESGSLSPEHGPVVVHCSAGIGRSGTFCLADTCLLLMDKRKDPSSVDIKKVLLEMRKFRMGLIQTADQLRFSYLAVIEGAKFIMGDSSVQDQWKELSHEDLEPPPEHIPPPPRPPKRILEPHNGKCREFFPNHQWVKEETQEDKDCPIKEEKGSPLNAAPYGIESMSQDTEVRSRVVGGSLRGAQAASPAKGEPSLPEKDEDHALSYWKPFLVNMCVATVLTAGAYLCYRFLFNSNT
Nature of the series: Inhibition of recombinant human PTP1B using pNPP as substrate after 30 mins.

Series [2] deals with T2, Tyrosine-protein phosphatase non-receptor type 1 (Mus musculus) (UniProt P35821).
T2 sequence (whole entry): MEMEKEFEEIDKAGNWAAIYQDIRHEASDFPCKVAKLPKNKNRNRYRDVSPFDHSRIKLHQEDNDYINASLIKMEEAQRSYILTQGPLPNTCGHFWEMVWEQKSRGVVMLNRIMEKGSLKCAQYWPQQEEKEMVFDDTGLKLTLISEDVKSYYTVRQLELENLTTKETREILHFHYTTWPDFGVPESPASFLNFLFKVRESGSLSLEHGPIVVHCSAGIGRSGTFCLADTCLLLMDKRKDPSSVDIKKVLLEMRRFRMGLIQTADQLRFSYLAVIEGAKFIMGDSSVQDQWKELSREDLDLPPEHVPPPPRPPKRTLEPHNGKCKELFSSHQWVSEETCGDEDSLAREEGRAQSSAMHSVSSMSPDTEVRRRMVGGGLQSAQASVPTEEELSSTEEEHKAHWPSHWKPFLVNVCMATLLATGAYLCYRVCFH
As to the kind of experiment: Inhibition of PTP1B in differentiated mouse C2C12 cells assessed as upregulation of ACC phosphorylation at Ser-79 residue at 0.2 mM after 30 mins by Western blot assay. (A western blot detects proteins with antibodies after separation by electrophoresis.)

A further series deals with C2C12. As to the kind of experiment: Cytotoxicity against mouse C2C12 cells assessed as reduction in cell viability at 20 uM after 24 hrs by MTT assay. In kind it is cell-based. Particulars: c2c12, 24 h. For orientation: Formazan colour is commonly taken as a measure of viable cells.
The target of series [3] is T2, Tyrosine-protein phosphatase non-receptor type 1 (Mus musculus). As to the kind of experiment: Inhibition of PTP1B in differentiated mouse 3T3L1 cells assessed as increase in glucose uptake at 5 to 20 uM after 1 hr by 2-NBDG staining based fluorescence assay.
For series [4] the target is unchanged. Nature of the series: Inhibition of PTP1B in differentiated mouse 3T3L1 cells assessed as increase in glucose uptake at 20 uM after 1 hr by […] staining based fluorescence microscopic assay.
Series [5] shares this target. Nature of the series: Inhibition of PTP1B in differentiated mouse C2C12 cells assessed as upregulation of ACC phosphorylation at Ser-79 residue at 20 uM after 30 mins by Western blot assay.
The target is the same in series [6]. Nature of the series: Inhibition of PTP1B in differentiated mouse C2C12 cells assessed as upregulation of AMPKalpha phosphorylation at Thr-172 residue at 20 uM after 3 hrs by Western blot assay.
In series [7] the target is Mitogen-activated protein kinase 1 and 3 (ERK2 and ERK1) (Mus musculus) (UniProt P63085+Q63844). As to the kind of experiment: Upregulation of ERK1/2 phosphorylation at p44 residue in differentiated mouse C2C12 cells at 10 to 20 uM preincubated for 2 hrs followed by insulin addition measured after 15 mins by Western blot assay.

This note sets out measurements from ChEMBL document CHEMBL4043257, “PTP1B inhibitors from the seeds of Iris sanguinea and their insulin mimetic activities via AMPK and ACC phosphorylation” (Bioorg Med Chem Lett, 2017).

What is called IC50 is the concentration that inhibits the measured activity by half.

Activity calls are given as the source filed them. The calls are words filed in the database; no cut-off is given here.

Sequence of Mitogen-activated protein kinase 1 and 3 (ERK2 and ERK1) (Mus musculus) (P63085 whole entry, looked up): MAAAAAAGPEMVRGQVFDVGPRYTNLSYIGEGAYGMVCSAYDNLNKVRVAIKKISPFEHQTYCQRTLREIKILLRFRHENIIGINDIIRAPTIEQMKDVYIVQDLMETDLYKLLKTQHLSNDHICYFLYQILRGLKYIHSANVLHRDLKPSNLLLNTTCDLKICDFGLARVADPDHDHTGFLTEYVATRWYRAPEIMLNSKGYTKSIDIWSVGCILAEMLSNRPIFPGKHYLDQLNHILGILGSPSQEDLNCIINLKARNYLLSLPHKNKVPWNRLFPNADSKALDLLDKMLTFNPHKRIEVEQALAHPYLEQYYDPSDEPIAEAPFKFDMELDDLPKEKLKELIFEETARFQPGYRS
Sequence of Mitogen-activated protein kinase 1 and 3 (ERK2 and ERK1) (Mus musculus) (Q63844 whole entry, looked up): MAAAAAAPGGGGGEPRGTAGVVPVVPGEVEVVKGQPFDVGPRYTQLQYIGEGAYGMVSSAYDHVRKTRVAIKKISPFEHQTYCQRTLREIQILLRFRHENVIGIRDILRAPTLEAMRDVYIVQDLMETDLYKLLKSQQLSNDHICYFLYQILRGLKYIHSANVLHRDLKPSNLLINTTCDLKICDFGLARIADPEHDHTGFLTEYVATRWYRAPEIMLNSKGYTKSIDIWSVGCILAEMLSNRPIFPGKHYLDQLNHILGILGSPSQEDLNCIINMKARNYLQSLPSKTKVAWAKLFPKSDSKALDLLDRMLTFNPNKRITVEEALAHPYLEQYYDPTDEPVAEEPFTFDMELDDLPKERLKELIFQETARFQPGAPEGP

`CC1(C)C[C@@H]2C[C@](C)(O)C(=O)C=C1O2`: the IC50 in series [1] was found to be 27 µM.

`NC(=O)c1ncn([C@@H]2O[C@H](CO)[C@@H](O)[C@H]2O)c1N`: in series [2], the inhibition result is “Active”.

On to `CC1(C)[C@@H]2CC(=O)[C@@]1(C)C[C@@H]2O`, for which, in series [1], the IC50 was 17.6 µM.

As for `C=C(C)C1=CC[C@@]2(C)[C@H]1[C@H]1CC[C@@H]3[C@@]4(C)CC[C@H](OC(=O)CCCCCCCCCCCCCCC)C(C)(C)[C@@H]4CC[C@@]3(C)[C@]1(C)C[C@@H]2O`, the concentration for half-maximal inhibition (IC50) in series [1] came out at 23.6 µM. For the same compound, the Activity entry in the series with C2C12 is reported as “Non-Toxic”. Also, the inhibition entry in series [3] and in series [4] was “Active” throughout.

Turning to `C=C1CC/C=C(\COC(C)=O)CC[C@@H](C(C)C)[C@@H](O)[C@@H]1O`, the 50% inhibitory concentration (IC50) in series [1] was 7.3 µM. In addition, the Activity entry in the series on C2C12 was “Non-Toxic”. Further, the inhibition entry in series [5], in series [3] and in series [4] was “Active” in each case. The inhibition entry in series [6] is “inactive”. For the same compound, the outcome in series [7] was Active.
